In patent US20230141600A1, “IMIDAZOPYRAZINE DERIVATIVES” (priority 2020, published 2023) one finds IC90 data, which are given here for 22 compounds.

Counter-ions that a name gives are not always drawn.

The first assay concerns Acinetobacter baumannii ATCC17978. Put plainly: 90% growth inhibitory concentration (IC90) determination, antimicrobial susceptibility testing. Format: cell-based. The conditions noted are these: ATCC17978, 90% growth inhibition, Iso-Sensitest broth, OD 600 nm over 16 h, 35±2° C., read-out: ATCC 17978 IC90. Here is the method:
Antimicrobial Susceptibility Testing:
90% Growth Inhibitory Concentration (IC90) Determination
The in vitro antimicrobial activity of the compounds was determined according to the following procedure:
The assay used a 10-points Iso-Sensitest broth medium to measure quantitatively the in vitro activity of the compounds against Acinetobacter baumannii ATCC17961 and ATCC17978.
Stock compounds in DMSO were serially twofold diluted (e.g. range from 50 to 0.097 μM final concentration) in 384 wells microtiter plates and inoculated with 49 μl the bacterial suspension in Iso-Sensitest medium to have a final cell concentration of ˜5×10^(5) CFU/ml in a final volume/well of 50 ul/well. Microtiter plates were incubated at 35±2° C.
Bacterial cell growth was determined with the measurement of optical density at λ=600 nm each minutes over a time course of 16 h. Growth inhibition was calculated during the logarithmic growth of the bacterial cells with determination of the concentration inhibiting 50% (IC50) and 90% (IC90) of the growth.
Table 1 provides the 90% growth inhibitory concentrations (IC90) in micromoles per liter of the compounds of present invention obtained against the strain Acinetobacter baumannii ATCC17978.
By IC90 is commonly meant the point of the concentration-response curve where the effect stands at 90%. In the case of `Cc1cc(Nc2nccn3c(-c4ccc(OC(F)F)cc4)cnc23)ccc1C(=O)NCCOCC[N+](C)(C)C` [Example 1, 2-(2-(4-((3-(4-(difluoromethoxy)phenyl)imidazo[1,2-a]pyrazin-8-yl)amino)-2-methylbenzamido)ethoxy)-N,N,N-trimethylethanaminium Iodide], the IC90 was 658 nM.

`Cc1cc(Nc2nccn3c(-c4ccc(OCC#CCN)cc4)cnc23)ccc1C(=O)N(C)CCC1CC[N+](C)(C)CC1` [Example 5, 4-[[3-[4-(4-aminobut-2-ynoxy)phenyl]imidazo[1,2-a]pyrazin-8-yl]amino]-N-[2-(1,1-dimethylpiperidin-1-ium-4-yl)ethyl]-N,2-dimethyl-benzamide Formate]: the IC90 is 2130 nM.

Regarding `CCc1cc(Nc2nccn3c(-c4ccc(OC)c(F)c4F)cnc23)ccc1C(=O)NCCOCC[N+](C)(C)C` [Example 13, 2-(2-(4-((3-(2,3-difluoro-4-methoxyphenyl)imidazo[1,2-a]pyrazin-8-yl)amino)-2-ethylbenzamido)ethoxy)-N,N,N-trimethylethanaminium Formate], the IC90 was determined as 109 nM.

On to `COc1ccc(-c2cnc3c(Nc4ccc(C(=O)N5CCN(CC[N+](C)(C)C)CC5)c(Br)c4)nccn23)cc1F` [Example 14, 2-[4-[2-Bromo-4-[[3-(3-fluoro-4-methoxy-phenyl)imidazo[1,2-a]pyrazin-8-yl]amino]benzoyl]piperazin-1-yl]ethyl-trimethyl-ammonium 2,2,2-trifluoroacetate], for which the IC90 stood at 476 nM.

`C#CCOc1ccc(-c2cnc3c(Nc4ccc(C(=O)NCCOCC[N+](C)(C)C)c(CC)c4)nccn23)c(F)c1F` [Example 15, 2-[2-[[4-[[3-(2,3-Difluoro-4-prop-2-ynoxy-phenyl)imidazo[1,2-a]pyrazin-8-yl]amino]-2-ethyl-benzoyl]amino]ethoxy]ethyl-trimethyl-ammonium 2,2,2-trifluoroacetate]: the IC90 amounted to 238 nM.

With `COc1ccc(-c2cnc3c(Nc4ccc5c(c4)CCN(CCOCC[N+](C)(C)C)C5=O)nccn23)c(F)c1F` [Example 16, 2-[2-[6-[[3-(2,3-difluoro-4-methoxy-phenyl)imidazo[1,2-a]pyrazin-8-yl]amino]-1-oxo-3,4-dihydroisoquinolin-2-yl]ethoxy]ethyl-trimethyl-ammonium Formate], the 90% effect concentration (IC90) turned out to be 396 nM.

Regarding `C[N+]1(CCOCCNC(=O)c2ccc(Nc3nccn4c(-c5ccc(OCC#N)c(F)c5F)cnc34)cc2Cl)CCNC(C(=O)O)C1` (stereo not shown) [Example 17, 4-[2-[2-[[2-chloro-4-[[3-[4-(cyanomethoxy)-2,3-difluoro-phenyl]imidazo[1,2-a]pyrazin-8-yl]amino]benzoyl]amino]ethoxy]ethyl]-4-methyl-piperazin-4-ium-2-carboxylic acid Formate], the IC90 came out at 1290 nM.

With `Cc1cc(Nc2nccn3c(-c4ccc(OC(F)F)cc4)cnc23)ccc1C(=O)N(C)CCC1CC[N+](C)(C)CC1` [Example 19, 4-(2-(4-((3-(4-(difluoromethoxy)phenyl)imidazo[1,2-a]pyrazin-8-yl)amino)-N,2-dimethylbenzamido)ethyl)-1,1-dimethylpiperidin-1-ium Formate], the IC90 turned out to be 446 nM.

`CC[N+]1(C)CCC(CCNC(=O)c2ccc(Nc3nccn4c(-c5ccc(OC)cc5)cnc34)cc2C)CC1` (stereo not shown) [Example 20, 1-ethyl-4-(2-(4-((3-(4-methoxyphenyl)imidazo[1,2-a]pyrazin-8-yl)amino)-2-methylbenzamido)ethyl)-1-methylpiperidin-1-ium Formate]: the IC90 was determined as 958 nM.

Consider `COc1ccc(-c2cnc3c(Nc4ccc(C(=O)N(C)CCC5CC[N+](C)(C)CC5)c(C)c4)nccn23)c(F)c1F` [Example 22, 4-[[3-(2,3-Difluoro-4-methoxy-phenyl)imidazo[1,2-a]pyrazin-8-yl]amino]-N-[2-(1,1-dimethylpiperidin-1-ium-4-yl)ethyl]-N,2-dimethyl-benzamide 2,2,2-trifluoroacetate], for which the IC90 was 260 nM.

As for `COc1ccc(-c2cnc3c(Nc4ccc(C(=O)NCCC5CC[N+](C)(CC(=O)O)CC5)c(C)c4)nccn23)cc1` (stereo not shown) [Example 23, 1-(carboxymethyl)-4-(2-(4-((3-(4-methoxyphenyl)imidazo[1,2-a]pyrazin-8-yl)amino)-2-methylbenzamido)ethyl)-1-methylpiperidin-1-ium Formate], the IC90 came to 2220 nM.

Consider `CC[N+]1(CC)CCC(CCN(C)C(=O)c2ccc(Nc3nccn4c(-c5ccc(OC(F)F)cc5)cnc34)cc2C)CC1` [Example 24, 4-(2-(4-((3-(4-(difluoromethoxy)phenyl)imidazo[1,2-a]pyrazin-8-yl)amino)-N,2-dimethylbenzamido)ethyl)-1,1-diethylpiperidin-1-ium Formate], for which the IC90 came to 742 nM.

For `Cc1cc(Nc2nccn3c(-c4ccc(OC(F)F)cc4)cnc23)ccc1C(=O)NCCCCCC[N+](C)(C)C` [Example 25, 6-(4-((3-(4-(difluoromethoxy)phenyl)imidazo[1,2-a]pyrazin-8-yl)amino)-2-methylbenzamido)-N,N,N-trimethylhexan-1-aminium Formate], the IC90 is 591 nM.

For the compound `C[N+](C)(C)CCN1CCN(C(=O)c2ccc(Nc3nccn4c(-c5ccc(OCC#N)c(F)c5F)cnc34)cc2Cl)CC1` [Example 26, 2-[4-[2-chloro-4-[[3-[4-(cyanomethoxy)-2,3-difluorophenyl]imidazo[1,2-a]pyrazin-8-yl]amino]benzoyl]piperazin-1-yl]ethyl-trimethylazanium Iodide], the IC90 amounted to 156 nM.

With `COc1ccc(-c2cnc3c(Nc4ccc(C(=O)N5CCC(C(=O)NCC[N+](C)(C)C)CC5)c(C)c4)nccn23)cc1F` [Example 27, 2-(1-(4-((3-(3-Fluoro-4-methoxyphenyl)imidazo[1,2-a]pyrazin-8-yl)amino)-2-methylbenzoyl)piperidine-4-carboxamido)-N,N,N-trimethylethanaminium Formate], the IC90 stood at 249 nM.

As to `CCc1cc(Nc2nccn3c(-c4ccc(Cl)c(F)c4F)cnc23)ccc1C(=O)NCCC[N+](C)(C)C` [Example 28, 3-(4-((3-(4-Chloro-2,3-difluorophenyl)imidazo[1,2-a]pyrazin-8-yl)amino)-2-ethylbenzamido)-N,N,N-trimethylpropan-1-aminium Formate], the 90% effect concentration (IC90) amounted to 605 nM.

On to `Cc1cc(Nc2nccn3c(-c4ccc(OC(F)F)cc4)cnc23)ccc1C(=O)N1CCC(CC[N+](C)(C)C)CC1` [Example 29, 2-(1-(4-((3-(4-(Difluoromethoxy)phenyl)imidazo[1,2-a]pyrazin-8-yl)amino)-2-methylbenzoyl)piperidin-4-yl)-N,N,N-trimethylethanaminium Formate], for which the 90% effect concentration (IC90) came out at 293 nM.

Still in this assay, the particulars now being: ATCC17978, 16 h, read-out: ATCC 17978 IC90.
As to `Cc1cc(Nc2nccn3c(-c4ccc(OCC#N)c(F)c4F)cnc23)ccc1C(=O)N1CCC(CC[N+](C)(C)C)CC1` [Example 2, 2-[1-[4-[[3-[4-(Cyanomethoxy)-2,3-difluoro-phenyl]imidazo[1,2-a]pyrazin-8-yl]amino]-2-methyl-benzoyl]-4-piperidyl]ethyl-trimethyl-ammonium Formate], the IC90 is 214 nM.

On to `COc1ccc(-c2cnc3c(Nc4ccc(C(=O)N(C)CCN5CC[N+](C)(C)CC5)c(Cl)c4)nccn23)c(F)c1F` [Example 21, 2-chloro-4-[[3-(2,3-difluoro-4-methoxy-phenyl)imidazo[1,2-a]pyrazin-8-yl]amino]-N-[2-(4,4-dimethylpiperazin-4-ium-1-yl)ethyl]-N-methyl-benzamide 2,2,2-trifluoroacetate], for which the IC90 stood at 480 nM.

The test system of another assay is Acinetobacter baumannii ATCC17961. The assay is described as above. To be noted: 90% growth inhibition, Iso-Sensitest broth, OD 600 nm over 16 h, 35±2° C.; read-out: ATCC 17961 IC90. Format: cell-based. The method in brief:
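Twofold serial dilutions (e.g. 50 to 0.097 μM final) in Iso-Sensitest broth, inoculated at ~5×10^5 CFU/ml and incubated at 35±2 °C for 16 h with OD600 read every minute. IC90 taken from growth inhibition during the logarithmic phase.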
“Methyl 2-[1-[1-(azetidin-3-ylmethyl)-1-methyl-piperidin-1-ium-4-carbonyl]-4-piperidyl]-2-[[4-[[3-(2,3-difluoro-4-methoxy-phenyl)imidazo[1,2-a]pyrazin-8-yl]amino]-2-ethyl-benzoyl]amino]acetate formate 2,2,2-trifluoroacetate (Mixed Salt) [Example 125]”: the IC90 was determined as 1550 nM.

The same assay, now with this note: Acinetobacter baumannii, ATCC17961, 16 h, 90% growth inhibition, Iso-Sensitest broth, OD 600 nm over 16 h, 35±2° C.; read-out: ATCC 17961 IC90.
For the compound `CCc1cc(Nc2nccn3c(-c4ccc(OC)c(F)c4F)cnc23)ccc1C(=O)NCC1CC[N+](CC)(CC2CNC2)CC1` (stereo not shown) [Example 143, N-[[1-(Azetidin-3-ylmethyl)-1-ethyl-piperidin-1-ium-4-yl]methyl]-4-[[3-(2,3-difluoro-4-methoxy-phenyl)imidazo[1,2-a]pyrazin-8-yl]amino]-2-ethyl-benzamide Formate], the IC90 came out at 609 nM.

Take `CCc1cc(Nc2nccn3c(-c4ccc(Oc5ccccc5)c(F)c4F)cnc23)ccc1C(=O)NCC1CC[N+](C)(CC2CCNC2)CC1` (stereo not shown) [Example 145, 4-[[3-(2,3-Difluoro-4-phenoxy-phenyl)imidazo[1,2-a]pyrazin-8-yl]amino]-2-ethyl-N-[[1-methyl-1-(pyrrolidin-3-ylmethyl)piperidin-1-ium-4-yl]methyl]benzamide Formate]: the IC90 was found to be 1780 nM.
